From patent EP4361137A1, “PRUNE1 INHIBITORS AND THERAPEUTIC USE THEREOF” (CEINGE Biotecnologie Avanzate Franco Salvatore s.c. a r.l., priority 2022, dated 2024)

How the values were obtained:
[1] = test system: J774A.1 macrophages; experiment: M2-polarization of macrophages grown in conditioned media (qPCR); assay type: cell-based, murine; settings: macrophages 48 h in conditioned media of MMTV-Prune1-Wnt1 cells treated with 10 µM
Protocol: The effects of MMTV-Prune-1/Wnt1 cells upon treatment with LEO-AA7.5(S)T were analyzed for M2-polarization of J774A. 1 murine macrophages. Briefly 1 ×10^6 MMTV-Prune-1/Wnt1 cells were resuspended in 10 mL complete DMEM medium, plated into 10-cm-diameter plates, treated with 10 µM LEO-AA7.5(S)T or water as vehicle control, and grown at 37 °C for 24 h. Then the conditioned media were collected. One day before culture in the conditioned media, J774A.1 macrophages were plated into 10-cm-diameter plates. At the time of the culturing in conditioned media, macrophages were at 50% confluence, and after 6 h of starvation in serum-free medium, the macrophages were grown in conditioned media for 48 h. Each experimental point was carried out in triplicate. After the culturing in the conditioned media, the macrophages were washed with PBS, collected, and used for RNA extraction.
RNA samples were extracted using TRIzol RNA Isolation Reagent (15596026, Invitrogen), according to the manufacturer instructions. […] The targets were detected with the SYBR green approach, using BrightGreen BlasTaq 2× PCR MasterMix (G895; ABM). Human ACTB was used as the housekeeping gene to normalize the quantification cycle (Cq) values of the other genes. […] Relative expression of the target genes was determined using the 2^-ΔΔCq method, as the fold increase compared with the controls. […]

[2] = test system: Prune1; experiment: Immunoblotting of Prune1 in MMTV-Prune1/Wnt1 cells; assay type: cell-based, human and murine; settings: dose of 10 mM
Protocol: (§1) D425.MED and MMTV-Prune1/Wnt1 cells were plated and treated with increasing concentrations of LEO-AA7.5(S)T for 24 hours. Water-treated cells were used as negative control for the experiments.
Cells for immunoblotting analysis were washed in cold PBS and lysed in cell lysis buffer [20 mM sodium phosphate (pH 7.4), 150 mM NaCl, 10% (v/v) glycerol, 1% (w/v) sodium deoxycholate, 1% (v/v) Triton X-100] supplemented with protease inhibitors (Roche). The resulting cell lysates were cleared by centrifugation at 16,200g for 10 min at room temperature, and the supernatants were re- moved and assayed for protein concentrations with the Protein Assay Dye Reagent (Bio-Rad). The cell lysates (30 µg) were resolved by SDS-polyacrylamide gel electrophoresis (SDS-PAGE) gels of different percentages, which depended on the molecular weights of the proteins of interest. The proteins were then electrophoretically transferred to polyvinylidene difluoride (PVDF) membranes (Millipore). After 1 hour in blocking solution with 5% (w/v) dry milk fat in PBS or 5% (w/v) BSA (Sigma-Aldrich) in tris-buffered saline [both of which contained 0.02% (v/v) Tween 20] […] The peak areas of the bands were measured on the densitometry plots, and the relative proportions (percentages) were calculated. […]

[3] = test system: MMTV-Prune1/Wnt1 cells; experiment: Real-time cell proliferation assay (cell index, xCELLigence); assay type: cell-based, murine; settings: 10 µM and 100 µM, dose dependent
Protocol: as §1
Cellular proliferation rates were determined with the xCELLigence system (Roche). D425-MED, MATH-Prune1/TP53-/- and MMTV-Prune1/Wnt1 cells (8 × 10^3) were treated with increasing concentrations of LEO-AA7.5(S)T, harvested, and then added to a single well of an xCELLigence E-plate 16. The proliferation rates were determined at 2-min intervals by measuring the impedance changes across the electrodes at the bottoms of the wells. These cell index values were calculated by the xCELLigence RTCA software. with vehicle-treated cells were the negative control. Impedance was measured every 2 min over 24 hours. The IC50 values were calculated through nonlinear regression analysis performed with Graph Pad Prism 9 ([inhibitor] vs. response (three parameters). Data are means ± SD of three independent experiments.

[4] = test system: Caspase 3; experiment: Caspase 3 activity assay; assay type: cell-based, murine; settings: MATH1-Prune1/TP53-/- cells
Protocol: MATH1-Prune1/TP53-/- cells (3×10^4) were plated in 96-well plate and treated with different doses of Vincristine (i.e., 0.3 nM or 0.03 nM) alone or combined to 10 µM LEO-AA7.5(S)T. Vehicle- (0.01% DMSO) treated cells were used as negative controls. Staurosporine-treated cells (1 µM) were used as positive controls of the assays. The assay was performed by using Caspase-3 Activity Assay Kit (#5723, Cell Signaling), by following the manufacture's instruction. Briefly, after 24 hours from the treatment started, cell medium was removed and 30 ul of cell lysis buffer (PI-7018, Cell Signaling) were added. The plate was then incubated for 5 minutes on ice. Later, 25 ul of cell lysate were mixed with 200 ul substrate solution B (#11734S, Cell Signaling) in a black 96 well plate. Fluorescence was detected by using a multimode plate reader (Enspire, 2300, PerkinElmer). The positive control AMC (25 µl, #11735S, Cell Signaling) mixed with 200 ul 1X assay buffer A (#11736S, Cell Signaling) was used as positive control of fluorescence.

## COc1ccc(CNc2ncnc(N3CCC[C@H](CO)C3)n2)cc1.Cl [LEO-AA7.5(S)T, (S)-(1-(4-((4-methoxybenzyl)amino)-1,3,5-triazin-2-yl)piperidin-3-yl)methanol HCl salt]
[1]
  levels of M2-polarized marker genes in macrophages: decreased levels
[2]
  degradation of human and murine Prune protein: enhance the degradation
[3]
  proliferation rate: reduction
[4]; 10 µM plus 0.03 nM Vincristine
  Caspase 3 activation, combination with Vincristine: promotes Caspase 3 activation
[4]; Vincristine 0.3 nM and 0.03 nM, LEO-AA7.5(S)T 10 µM, 24 hours
  Caspase 3 activation, single agent: does not induce apoptotic action
